# Measurements: patent US12516038B2, “Inhibitors of antigen presentation by HLA-DR” (Janssen Pharmaceutica NV, priority 2020, dated 2026)
# Legend:
# [1] = molecular target: HLA-DRB1*0401 (Homo sapiens (Human), UniProt P01903+P01911, A100K/A169T/DEL228-266/F76Y/I96L/K127E/L162R/M171V/N62H/P40V/Q125Y/R42H/S133A/S149N/S66Y/V115G/V209L/W38E); assay: HLA-DR4 HTRF assay; assay type: binding; conditions: inhibition of loading of Alexa Fluor 647-labeled Cit-CII peptide onto HLA-DR4 (CLIP cleaved)
# Text: (§1) The screening was made through two sets of HLA-DR/peptide-dependent assays: a peptide-dependent Homogeneous Time Resolved Fluorescence (HTRF) binding assay followed by an HLA-DR dependent, peptide-specific T cell functional assay (HLA-DR4-restricted peptide-specific T cell-based assay hybridoma assay). The HTRF binding assay was designed to measure the ability of the small molecule to inhibit the loading of a fluorescently labeled high-affinity peptide onto HLA-DR peptide binding groove. The peptide-specific T cell functional assay assesses T cell activation resulting from proper peptide presentation onto HLA-DR expressed on the surface of the antigen-presenting cells to the T cell and is used to screen compounds able to inhibit such HLA-DR/peptide-dependent T cell activation.
# The HLA-DR4 HTRF assay is based on HTRF technology and designed to measure ability of compounds to prevent loading of high-affinity Alexa Fluor 647-labeled Citrullinated Collagen 111236-1249 peptide (named Cit-CII/AF647, aa1236-1249, LQYM-Cit-ADQAAGGLR; Alexa Fluor 647 dye commercially available from Invitrogen) onto HLA-DRB1*0401. The HTRF assay technology is based on the energy transfer between two fluorophores, a donor and an acceptor, when in close proximity. The HLA-DR4 protein construct was uniquely designed for this assay and has (i) the α and […] subunits fused to human Fc chains and (ii) the invariant chain-associated peptide (CLIP peptide, aa85-101), the universal moderate/low-affinity HLA-DR binder, attached to the beta chain through a HRV3C protease-cleavable linker.
# Because of the low stability of peptide free HLA-DR4 heterodimer, the construct was purified and delivered with CLIP peptide attached to the N-terminal of the β chain. The HLA-DR4 heterodimer was pre-treated with 3 μL HRV3C protease (Novagen E71493-3) (˜2 U/μL) per mg of the cleavable protein to cleave CLIP peptide and incubated overnight (>16 hrs) at 4° C. This method yielded at least 80% cleavage and allowed the CLIP peptide to be potentially exchanged with the fluorescently labeled high affinity cit-CII1236-1249 peptide. A batch of […] protein with CLIP cleaved was prepared for multiple experiments and was stable for several months when stored at 4° C.
# In this assay, anti-human Fc antibody labeled with Tb-Cryptate probe was used as the donor (commercially available from Cisbio—PAb Anti-human IgG-Tb Cryptate, Cat #61HFCTAB) and high affinity peptide Citrullinated CII (cit-CII) labeled with Alexa 647 fluorophore was utilized as the acceptor. Inhibitors of the exchange of the pre-cleaved CLIP peptide for the high affinity cit-CII1236-1249 peptide onto HLA-DRB1*04:01 caused a decrease in HTRF signal as measured by the ratio of the 665 nm/620 nm emitted signal. Screening compounds were robotically pre-dispensed (150 nL, Hummingbird, DigiLab/CyBio AG) onto black, round bottom, nontreated, 1536-well assay plates (Corning #3939), were incubated with 3 nM HLA-DR4 (with CLIP cleaved) plus 1 nM Human IgG-Tb (anti-Fc-Tb) Antibody for 45 min prior to addition of 40 nM Cit-CII peptide labeled with Alexa-647. The negative control was DMSO plus 1 nM Human IgG-Tb (anti-Fc-Tb) Antibody, incubated for 45 minutes before addition of 40 nM Cit-CII peptide labeled with Alexa-647. The positive control was DMSO plus 3 nM HLA-DR4 (with CLIP cleaved) plus 1 nM Human IgG-Tb (anti-Fc-Tb) Antibody with 40 nM Cit-CII peptide labeled with Alexa-647 added after a 45-minute incubation. Plates were centrifuged at 1000 rpm for 1 minute and then incubated at 37° C., at 90% relative humidity for 90 minutes. After incubation, plates were read on a spectrophotometer, the Pherastar FS (BMG Labtech), in HTRF mode. The HTRF ratio as well as percent inhibition was calculated. Curve fitting and IC50 calculation for dose response data was performed by Microsoft Excel, 3DX (Janssen proprietary software) or Graphpad Prism (Graphpad Software, San Diego, CA). […]
# [2] = test system: HLA-DR4 restricted mouse T cell hybridoma line (DR4.CII.36.8) with HLA-DRB1*04:01-expressing Boleth cells; assay: HLA-DR4-restricted peptide-specific T cell-based assay (hybridoma assay); conditions: Mus musculus, T-cell, 6 h, inhibition of IL-2 production, CII259-273 peptide presented by Boleth cells
# Text: as §1
# HLA-DR4-Restricted Peptide-Specific T Cell-Based Assay (Hybridoma Assay)
# The hybridoma assay was used to measure compound inhibition of TL-2 production from an HLA-DR4 restricted mouse T cell hybridoma line (DR4.CII.36.8) that was antigen-specific for collagen II259-273 (CII259-273) peptide when presented with an HLA-DR4 expressing Antigen Presenting Cell (APC) cell line (i.e., Boleth).
# To the HLA-DRB1*04:01-expressing B cell line (Boleth cell line from International Histocompatibility Working Group (IHWG), ref #IHW09031) was presented the collagen II 259-273 peptide (CII259-273, GIAGFKGEQGPKGEP) to mouse T cell hybridoma (DR4.CII.36.8 T cell hybridoma; clone 36.8, expressing a CII259-273-specific, HLA-DRB1*04:01-restricted T cell receptor). Upon proper CII259-273 peptide presentation, the T cell hybridoma was activated and thus produced IL-2 cytokine, whose level in the cell culture supernatant was detected using mouse IL-2 AlphaLISA kit (Perkin Elmer, Cat: AL511F).
# This assay was performed in a 384-well plate (polypropylene V-bottom Greiner bio-one, ref #784075) by: (i) pre-incubation of 20 μL of 1.25 million/mL Boleth cells (25,000 cells) resuspended in DMEM/1% fetal calf serum (FCS; Gibco, ref #16140-071) with 20 μL of 2.5× final concentration of compound of interest in DMEM/1% serum/0.75% DMSO at 37° C. for 1 hr in the incubator, then (ii) 10 μL of 5 million/mL (50,000 cells) DR4.CII.36.8 T cell hybridoma cells resuspended in DMEM/1% FCS was added and incubated for 6 h at 37° C. in the incubator. Supernatant was then collected and mouse IL-2 detected using AlphaLISA kit (ref #AL511F). Compounds were tested in duplicate, with 8-point titration. Mean±SD of AlphaLISA units at each compound concentration was used for compound IC50 calculation. The negative control for this experiment was run without peptide stimulation and used a DMSO vehicle wherein no compound of interest was added. The positive control was run with peptide stimulation and used a DMSO vehicle wherein no compound of interest was added. Both the negative and positive controls were run in 8 replicates each. Curve fitting and IC50 calculation for dose response data was performed by GraphPad software 6 or higher (GraphPad Software, San Diego, CA). Dose response data was plotted versus the log of compound concentration and IC50 was determined using 4-parameter logistic (4-PL) curve fitting.
Structure (SMILES),IC50 [1],IC50 [2]
"O=C1CCOc2cc(OC(c3ccncc3)c3ccccn3)ccc21 (racemic) [Example 6, (R,S)-7-(Pyridin-2-yl(pyridin-4-yl)methoxy)chroman-4-one]",1800 nM,1400 nM
"N#Cc1ccc(C(Oc2ccc3c(c2)OCCC3=O)c2ccncc2)cc1 (racemic) [Example 10, (R,S)-4-(((4-Oxochroman-7-yl)oxy)(pyridin-4-yl)methyl)benzonitrile]",770 nM,8700 nM
"Cc1c(OC(c2ccncc2)c2ccc(C(N)=O)cc2)ccc2c1OC(C)(C)CC2=O (racemic) [Example 113, (R,S)-4-(pyridin-4-yl((2,2,8-trimethyl-4-oxochroman-7-yl)oxy)methyl)benzamide]",820 nM,1000 nM
"Cc1c(OC2CCCc3cc(C#N)ccc32)ccc2c1OCCC2=O (racemic) [Example 122, (R,S)-5-((8-Methyl-4-oxochroman-7-yl)oxy)-5,6,7,8-tetrahydronaphthalene-2-carbonitrile]",1100 nM,15000 nM
"Cc1c(OC2CCCc3cc(C(N)=O)ccc32)ccc2c1OCCC2=O (racemic) [Example 123, (R,S)-5-((8-Methyl-4-oxochroman-7-yl)oxy)-5,6,7,8-tetrahydronaphthalene-2-carboxamide]",520 nM,15000 nM
"O=C1CCOc2cc(O[C@@H](c3ccncc3)c3cccc(O)c3)ccc21 (single isomer, unassigned) [Example 5b, (*S)-7-((3-Hydroxyphenyl)(pyridin-4-yl)methoxy)chroman-4-one]",14000 nM,5200 nM
"N#Cc1ccccc1[C@@H](Oc1ccc2c(c1)OCCC2=O)c1ccncc1 (single isomer, unassigned) [Example 7b, (*S)-2-(((4-Oxochroman-7-yl)oxy)(pyridin-4-yl)methyl)benzonitrile]",960 nM,5400 nM
"NC(=O)c1ccccc1[C@H](Oc1ccc2c(c1)OCCC2=O)c1ccncc1 (single isomer, unassigned) [Example 8a, (*R)-2-(((4-Oxochroman-7-yl)oxy)(pyridin-4-yl)methyl)benzamide]",680 nM,> 15000 nM
"NC(=O)c1ccccc1[C@@H](Oc1ccc2c(c1)OCCC2=O)c1ccncc1 (single isomer, unassigned) [Example 8b, (*S)-2-(((4-Oxochroman-7-yl)oxy)(pyridin-4-yl)methyl)benzamide]",820 nM,6500 nM
"N#Cc1ccc([C@H](Oc2ccc3c(c2)OCCC3=O)c2ccncc2)cc1 (single isomer, unassigned) [Example 10b, (*S)-4-(((4-oxochroman-7-yl)oxy)(pyridin-4-yl)methyl)benzonitrile]",910 nM,> 15000 nM
"COc1cccc([C@H](Oc2ccc3c(c2)OCCC3=O)c2ccncc2)c1 (single isomer, unassigned) [Example 13a, (*R)-7-((3-methoxyphenyl)(pyridin-4-yl)methoxy)chroman-4-one]",2000 nM,> 15000 nM
"COc1ccccc1[C@@H](Oc1ccc2c(c1)OCCC2=O)c1ccncc1 (single isomer, unassigned) [Example 14b, (*S)-7-((2-Methoxyphenyl)(pyridin-4-yl)methoxy)chroman-4-one]",1900 nM,11000 nM
"Cc1cc([C@@H](Oc2ccc3c(c2)OCCC3=O)c2ccc(C(N)=O)cc2)ccn1 (single isomer, unassigned) [Example 15b, (*S)-4-((2-Methylpyridin-4-yl)((4-oxochroman-7-yl)oxy)methyl)benzamide]",770 nM,8100 nM
"O=C1CCOc2cc(O[C@@H](c3ccncc3)c3ccc(OCc4ccccc4)cc3)ccc21 (single isomer, unassigned) [Example 16a, (*R)-7-((4-(benzyloxy)phenyl)(pyridin-4-yl)methoxy)chroman-4-one]",8100 nM,12000 nM
"O=C1CCOc2cc(O[C@H](c3ccncc3)c3ccc(OCc4ccccc4)cc3)ccc21 (single isomer, unassigned) [Example 16b, 7-((4-(benzyloxy)phenyl)(pyridin-4-yl)methoxy)chroman-4-one]",9900 nM,> 15000 nM
"NC(=O)c1ccc(C(Oc2ccc3c(c2)OCCC3=O)c2ccnc(C(F)(F)F)c2)cc1 (single isomer, unassigned) [Example 18a, (*R)-4-(((4-oxochroman-7-yl)oxy)(2-(trifluoromethyl)pyridin-4-yl)methyl)benzamide]",1400 nM,> 15000 nM
"NC(=O)c1ccc([C@@H](Oc2ccc3c(c2)OCCC3=O)c2ccncc2F)cc1 (single isomer, unassigned) [Example 20a, (*R)-4-((3-fluoropyridin-4-yl)((4-oxochroman-7-yl)oxy)methyl)benzamide]",1200 nM,6900 nM
"NC(=O)c1ccc([C@H](Oc2ccc3c(c2)OCCC3=O)c2ccncc2F)cc1 (single isomer, unassigned) [Example 20b, (*S)-4-((3-fluoropyridin-4-yl)((4-oxochroman-7-yl)oxy)methyl)benzamide]",910 nM,6200 nM
"CCCc1c(O[C@H](c2ccncc2)c2ccc(C(N)=O)cc2)ccc2c1OCCC2=O (single isomer, unassigned) [Example 80b, (*S)-4-(((4-Oxo-8-propylchroman-7-yl)oxy)(pyridin-4-yl)methyl)benzamide]",960 nM,
